Data published in patent US12703729B2, “GIP agonist compounds and methods” (Zealand Pharma A/S, priority 2014, dated 2026).
Starred links: 1 amine or outer side, 2 acyl side, 3 side chain; linkers in the order of their positions; H or OH if unused. Non-standard residues stand in square brackets, D forms with d. Residues, ends and D or L forms follow the SMILES beside them. Groups on a side chain read outwards from the residue. *: point of attachment. C20 diacid = O=C(O)CCCCCCCCCCCCCCCCCCC(=O)*; γGlu = O=C(O)[C@H](CCC(=O)[*:2])N[*:1]; AEEA = NCCOCCOCC(=O)O; Aib = CC(C)(N)C(=O)O

Key:
in vivo = conditions: male, C57BL/6J, mouse; for bioavailability: Bioavailability s.c.; for half-life: 200 nmol/kg
human GIP R = biological target: T1, human GIP R (Homo sapiens, UniProt P48546); assay: cell-based
T1 sequence (P48546 22-466): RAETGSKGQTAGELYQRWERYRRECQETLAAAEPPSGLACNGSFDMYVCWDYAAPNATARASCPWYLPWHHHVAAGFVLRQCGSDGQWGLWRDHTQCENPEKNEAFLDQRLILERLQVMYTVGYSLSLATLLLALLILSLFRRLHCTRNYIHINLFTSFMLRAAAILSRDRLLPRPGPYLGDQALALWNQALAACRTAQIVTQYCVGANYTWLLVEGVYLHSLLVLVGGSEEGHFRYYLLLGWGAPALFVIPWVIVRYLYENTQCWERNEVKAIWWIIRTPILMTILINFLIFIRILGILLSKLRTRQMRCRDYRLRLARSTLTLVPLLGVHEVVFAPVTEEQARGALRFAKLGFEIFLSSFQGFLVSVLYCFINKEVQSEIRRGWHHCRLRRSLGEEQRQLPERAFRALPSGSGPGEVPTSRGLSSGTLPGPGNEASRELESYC

[1] = biological target: T2, human GIP receptor (GIP R) (Homo sapiens, UniProt P48546); assay: Activity assay at human GIP receptor, cAMP induction (AlphaScreen), Example 3
T2 sequence (P48546 22-466): T1 sequence (P48546 22-466)

[2] = biological target: human GLP-1 receptor (GLP-1R) (Homo sapiens, UniProt P43220); assay: Activity assay at human GLP-1 receptor, cAMP induction (AlphaScreen), Example 3
Chain of human GLP-1 receptor (GLP-1R) (P43220 24-463): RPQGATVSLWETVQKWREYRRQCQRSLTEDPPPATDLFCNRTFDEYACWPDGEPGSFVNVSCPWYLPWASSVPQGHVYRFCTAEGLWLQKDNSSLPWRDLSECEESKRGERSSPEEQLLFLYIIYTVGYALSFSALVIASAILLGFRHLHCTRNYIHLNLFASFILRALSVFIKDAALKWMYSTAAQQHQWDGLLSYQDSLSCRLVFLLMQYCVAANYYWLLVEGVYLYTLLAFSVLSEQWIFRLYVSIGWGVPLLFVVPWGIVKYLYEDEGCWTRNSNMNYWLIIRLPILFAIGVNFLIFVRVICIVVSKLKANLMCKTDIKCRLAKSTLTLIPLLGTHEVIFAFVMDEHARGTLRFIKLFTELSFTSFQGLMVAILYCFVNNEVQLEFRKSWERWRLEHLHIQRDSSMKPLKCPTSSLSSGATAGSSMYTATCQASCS

[3] = iv, Terminal elimination half-life T½ i.v.
[4] = sc, Terminal elimination half-life T½ s.c.

`CC[C@H](C)[C@H](NC(=O)[C@H](CO)NC(=O)[C@H](Cc1ccc(O)cc1)NC(=O)[C@H](CC(=O)O)NC(=O)[C@H](CO)NC(=O)[C@@H](NC(=O)[C@H](Cc1ccccc1)NC(=O)[C@@H](NC(=O)CNC(=O)[C@H](CCC(=O)O)NC(=O)C(C)(C)NC(=O)[C@@H](N)Cc1ccc(O)cc1)[C@@H](C)O)[C@@H](C)CC)C(=O)N[C@@H](CCC(=O)O)C(=O)N[C@@H](CC(C)C)C(=O)N[C@@H](CC(=O)O)C(=O)N[C@@H](CCCCN)C(=O)N[C@@H](CCCCNC(=O)COCCOCCNC(=O)COCCOCCNC(=O)CC[C@H](NC(=O)CCCCCCCCCCCCCCCCCCC(=O)O)C(=O)O)C(=O)N[C@@H](C)C(=O)N[C@@H](C)C(=O)N[C@@H](CCC(N)=O)C(=O)N[C@@H](CC(=O)O)C(=O)N[C@@H](Cc1ccccc1)C(=O)N[C@H](C(=O)N[C@@H](CC(N)=O)C(=O)N[C@@H](Cc1c[nH]c2ccccc12)C(=O)N[C@@H](CC(C)C)C(=O)N[C@@H](CC(C)C)C(=O)N[C@@H](C)C(=O)N[C@@H](CCC(N)=O)C(=O)NCC(=O)N1CCC[C@H]1C(=O)N[C@@H](CO)C(=O)N[C@@H](CO)C(=O)NCC(=O)N[C@@H](C)C(=O)N1CCC[C@H]1C(=O)N1CCC[C@H]1C(=O)N1CCC[C@H]1C(=O)N[C@@H](CO)C(N)=O)C(C)C` [Compound 10] (H-Y[Aib]EGTFISDYSIELDKK([AEEA-AEEA-γGlu-C20 diacid])AAQDFVNWLLAQGPSSGAPPPS-NH2) gave a bioavailability (in vivo) of 100%, a half-life (in vivo; [3]) of 16.9 h and a Tmax (in vivo; sc) of 4 h. It also gave a half-life (in vivo; [4]) of 21.1 h, a bioavailability (in vivo; sc, repeated test) of 77% and an EC50 (human GIP R) of 7 pM. The EC50 [1] was 8 pM and the EC50 [2] was > 10000 pM.

`CC[C@H](C)[C@H](NC(=O)[C@H](CO)NC(=O)[C@H](Cc1ccc(O)cc1)NC(=O)[C@H](CC(=O)O)NC(=O)[C@H](CO)NC(=O)[C@@H](NC(=O)[C@H](Cc1ccccc1)NC(=O)[C@@H](NC(=O)CNC(=O)[C@H](CCC(=O)O)NC(=O)C(C)(C)NC(=O)[C@@H](N)Cc1ccc(O)cc1)[C@@H](C)O)[C@@H](C)CC)C(=O)N[C@@H](CCC(=O)O)C(=O)N[C@@H](CC(C)C)C(=O)N[C@@H](CCC(=O)O)C(=O)N[C@@H](CCCCN)C(=O)N[C@@H](CCCCNC(=O)COCCOCCNC(=O)COCCOCCNC(=O)CC[C@H](NC(=O)CCCCCCCCCCCCCCCCCCC(=O)O)C(=O)O)C(=O)N[C@@H](C)C(=O)N[C@@H](CCC(N)=O)C(=O)N[C@@H](CCCNC(=N)N)C(=O)N[C@@H](C)C(=O)N[C@@H](Cc1ccccc1)C(=O)N[C@H](C(=O)N[C@@H](CCC(=O)O)C(=O)N[C@@H](Cc1c[nH]c2ccccc12)C(=O)N[C@@H](CC(C)C)C(=O)N[C@@H](CC(C)C)C(=O)N[C@@H](C)C(=O)N[C@@H](CCC(N)=O)C(=O)NCC(=O)N1CCC[C@H]1C(=O)N[C@@H](CO)C(=O)N[C@@H](CO)C(=O)NCC(=O)N[C@@H](C)C(=O)N1CCC[C@H]1C(=O)N1CCC[C@H]1C(=O)N1CCC[C@H]1C(=O)N[C@@H](CO)C(N)=O)C(C)C` [Compound 12] gave a bioavailability (in vivo) of 77%, a half-life (in vivo; [3]) of 14.7 h and a Tmax (in vivo; sc) of 8 h. For the same compound, the half-life (in vivo; [4]) was 16.8 h, the bioavailability (in vivo; sc, repeated test) was 98% and the EC50 (human GIP R) was 9 pM. The EC50 [1] was 9 pM and the EC50 [2] was > 3000 pM.

For `CC[C@H](C)[C@H](NC(=O)[C@H](Cc1ccccc1)NC(=O)[C@H](CC(=O)O)NC(=O)[C@H](CCC(N)=O)NC(=O)[C@H](C)NC(=O)[C@H](C)NC(=O)[C@H](CCCCNC(=O)COCCOCCNC(=O)COCCOCCNC(=O)CC[C@H](NC(=O)CCCCCCCCCCCCCCCCCCC(=O)O)C(=O)O)NC(=O)[C@H](CCCCN)NC(=O)[C@H](CC(=O)O)NC(=O)[C@H](CC(C)C)NC(=O)[C@H](CCC(=O)O)NC(=O)[C@@H](NC(=O)[C@H](CO)NC(=O)[C@H](Cc1ccc(O)cc1)NC(=O)[C@H](CC(=O)O)NC(=O)[C@H](CO)NC(=O)[C@@H](NC(=O)[C@H](Cc1ccccc1)NC(=O)[C@@H](NC(=O)CNC(=O)[C@H](CCC(=O)O)NC(=O)C(C)(C)NC(=O)[C@@H](N)Cc1ccc(O)cc1)[C@@H](C)O)[C@@H](C)CC)[C@@H](C)CC)C(=O)N[C@@H](CCC(=O)O)C(=O)N[C@@H](Cc1c[nH]c2ccccc12)C(=O)N[C@@H](CC(C)C)C(=O)N[C@@H](CC(C)C)C(=O)N[C@@H](C)C(=O)N[C@@H](CCC(N)=O)C(=O)NCC(=O)N1CCC[C@H]1C(=O)N[C@@H](CO)C(=O)N[C@@H](CO)C(=O)NCC(=O)N[C@@H](C)C(=O)N1CCC[C@H]1C(=O)N1CCC[C@H]1C(=O)N1CCC[C@H]1C(=O)N[C@@H](CO)C(N)=O` [Compound 38] (H-Y[Aib]EGTFISDYSIELDKK([AEEA-AEEA-γGlu-C20 diacid])AAQDFIEWLLAQGPSSGAPPPS-NH2), the EC50 (human GIP R) was 1 pM, the EC50 [1] was 17 pM and the EC50 [2] was > 100000 pM.

With `CC[C@H](C)[C@H](NC(=O)[C@H](Cc1ccccc1)NC(=O)[C@H](CC(=O)O)NC(=O)[C@H](CCC(N)=O)NC(=O)[C@H](C)NC(=O)[C@H](C)NC(=O)[C@H](CCCCNC(=O)COCCOCCNC(=O)COCCOCCNC(=O)CC[C@H](NC(=O)CCCCCCCCCCCCCCCCCCC(=O)O)C(=O)O)NC(=O)[C@H](CCCCN)NC(=O)[C@H](CC(=O)O)NC(=O)[C@H](CC(C)C)NC(=O)[C@H](CCC(=O)O)NC(=O)[C@@H](NC(=O)[C@H](CO)NC(=O)[C@H](Cc1ccc(O)cc1)NC(=O)[C@H](CC(=O)O)NC(=O)[C@H](CO)NC(=O)[C@@H](NC(=O)[C@H](Cc1ccccc1)NC(=O)[C@@H](NC(=O)CNC(=O)[C@H](CCC(=O)O)NC(=O)C(C)(C)NC(=O)[C@@H](N)Cc1ccc(O)cc1)[C@@H](C)O)[C@@H](C)CC)[C@@H](C)CC)C(=O)N[C@@H](CC(N)=O)C(=O)N[C@@H](Cc1c[nH]c2ccccc12)C(=O)N[C@@H](CC(C)C)C(=O)N[C@@H](CC(C)C)C(=O)N[C@@H](C)C(=O)N[C@@H](CCC(N)=O)C(=O)NCC(=O)N1CCC[C@H]1C(=O)N[C@@H](CO)C(=O)N[C@@H](CO)C(=O)NCC(=O)N[C@@H](C)C(=O)N1CCC[C@H]1C(=O)N1CCC[C@H]1C(=O)N1CCC[C@H]1C(=O)N[C@@H](CO)C(N)=O` [Compound 39] (H-Y[Aib]EGTFISDYSIELDKK([AEEA-AEEA-γGlu-C20 diacid])AAQDFINWLLAQGPSSGAPPPS-NH2) the EC50 (human GIP R) was 7 pM, the EC50 [1] was 1 pM and the EC50 [2] was > 100000 pM.

With `CC[C@H](C)[C@H](NC(=O)[C@H](Cc1ccccc1)NC(=O)[C@H](C)NC(=O)[C@H](CCC(N)=O)NC(=O)[C@H](C)NC(=O)[C@H](C)NC(=O)[C@H](CCCCNC(=O)COCCOCCNC(=O)COCCOCCNC(=O)CC[C@H](NC(=O)CCCCCCCCCCCCCCCCCCC(=O)O)C(=O)O)NC(=O)[C@H](CCCCN)NC(=O)[C@H](CC(=O)O)NC(=O)[C@H](CC(C)C)NC(=O)[C@H](CCC(=O)O)NC(=O)[C@@H](NC(=O)[C@H](CO)NC(=O)[C@H](Cc1ccc(O)cc1)NC(=O)[C@H](CC(=O)O)NC(=O)[C@H](CO)NC(=O)[C@@H](NC(=O)[C@H](Cc1ccccc1)NC(=O)[C@@H](NC(=O)CNC(=O)[C@H](CCC(=O)O)NC(=O)C(C)(C)NC(=O)[C@@H](N)Cc1ccc(O)cc1)[C@@H](C)O)[C@@H](C)CC)[C@@H](C)CC)C(=O)N[C@@H](CCC(=O)O)C(=O)N[C@@H](Cc1c[nH]c2ccccc12)C(=O)N[C@@H](CC(C)C)C(=O)N[C@@H](CC(C)C)C(=O)N[C@@H](C)C(=O)N[C@@H](CCC(N)=O)C(=O)NCC(=O)N1CCC[C@H]1C(=O)N[C@@H](CO)C(=O)N[C@@H](CO)C(=O)NCC(=O)N[C@@H](C)C(=O)N1CCC[C@H]1C(=O)N1CCC[C@H]1C(=O)N1CCC[C@H]1C(=O)N[C@@H](CO)C(N)=O` [Compound 40] the EC50 (human GIP R) was 10 pM, the EC50 [1] was 7 pM and the EC50 [2] was > 10000 pM.
